# Measurements taken from patent US20060154871A1, “Peptides” (ReGen Therapeutics PIc, priority 1999, published 2006).
# Test system: rabbits
# Assay: Serum antibody titre by ELISA against the corresponding synthetic peptide antigen, before and after the 10 week immunisation of rabbits
# Assay type: in vivo, rabbit
# Conditions: for Titre: (Serum Dilution) Post Immunization R1: rabbit R1, after 10 week immunisation protocol, 200 μg peptide conjugate per inoculation; for Titre: (Serum Dilution) Pre Immunization R1: rabbit R1, pre immunization serum, ELISA with synthetic peptide antigen; for antigenic response: rabbits R1 and R2, summary of Table 6
# Text: To each N-terminal end of the synthetic peptides, L-cysteine was attached, and the peptide was formed into a ring so that the cysteine group lay between the N-terminal and the C-terminal ends of the synthetic peptide. This facilitated peptide conjugation with Keyhole Hemolymph (KHL). The shorter peptides (i.e. those containing 9 or fewer amino acids) were artificially elongated with biologically inert amino acids prior to attaching the L-cysteine. This was done in order to facilitate annealing and increase the antigenicity of the shorter peptides.
# For immunisation, two young adult rabbits (5-6 months old, weighing 5-6 lbs [2.3-2.7 kg]) were used. Each antigen (i.e., each synthetic peptide) was given subcutaneously and intramuscularly in 0.1 ml injections at ten different sites. The protocol used followed the following sequence:
# The level of antibodies in the serum was established by ELISA (enzyme-linked immunosorbent assay) with the corresponding synthetic peptide antigen. This technique involved the following steps: • 1. The antigen was diluted with a 0.1 M bicarbonate buffer (pH 9.0) to yield a 10 μg of antigen/ml solution. A volume of 50 μl of this solution was placed into each microwell of a 96 well plate. • 2. The plates were covered and incubated at 37° C. for 3 hours. • 3. The wells were washed with a coupling buffer and blocked using 200 μl of Pierce standard solution of BSA (bovine serum albumin). • 4. 50 μl of dilutent BSA (0.75% soln.) was pipetted into each well. 50 μl of antibody serum sample diluted 1:100 in dilutent BSA were placed in lane A of each row. • 5. 1:2 serial dilutions were performed moving down the plate. • 6. The plates were covered and incubated at room temperature for 60 minutes. • 7. The plates were washed four times with PBS wash solution. • 8. A volume of 50 μl of goat anti-rabbit IgG (H&L) HRP conjugate at 1:1000 dilution in BSA was pipetted into each well and incubated at room temperature for 60 minutes (H&L=heavy and light chain; HRP=horseradish peroxidase). • 9. The plates were washed four times with PBS wash solution. • 10. A volume of 50 μl of substrate solution 2,2′-azino-bis(3-ethylbenzothiazoline-6-sulfonic acid)-diammonium salt (ABTS available from Pierce, which is used to help visualise the extent of the antibody/antigen reaction) was pipetted into each well and incubated at room temperature for about 2 minutes. • 11. The reaction was stopped by adding 50 μl of 1% SDS (sodium dodecyl sulfate) into each well. • 12. The wells were then read on a dynoplate reader at 405.
# The data presented in Table 6 show the serum antibody titers against specific antibodies after the 10 week immunisation protocol.
Substance,Titre: (Serum Dilution) Post Immunization R1,Titre: (Serum Dilution) Pre Immunization R1,antigenic response
"AFLLYQE [Peptide C-12, β-casein precursor peptide, Casein Position 202-208]",12800,,
"ATFNRYQDDHGEEILKSL [Peptide D-1, annexin precursor peptide, Annexin Position 203-220]",12800,0,
"DLEMPVLPVEPFPFV [Peptide B-7, Colostrinin peptide (possibly) having β-casein homologue precursor]",25600,0,
"DPPPPQS [Peptide A-7, Colostrinin peptide of unknown precursor]",3400,0,significantly lower than expected
"DQPPDVEKPDLQPFQVQS [Peptide B-10, Colostrinin peptide (possibly) having β-casein homologue precursor]",12800,0,
DSQPPV [Peptide B-4],25600,0,
FPPPK [Peptide B-5],12800,0,
"KYKLQPE [Peptide B-2, Colostrinin peptide (possibly) having β-casein homologue precursor]",25600,0,
"LFFFLPVVNVLP [Peptide B-8, Colostrinin peptide (possibly) having β-casein homologue precursor]",200,0,significantly lower than expected
"LKPFPKLKVEVFPFP [Peptide A-4, Colostrinin peptide of unknown precursor]",6400,0,
"LQTPQPLLQVMMEPQGD [Peptide A-1, Colostrinin peptide of unknown precursor]",6400,0,significantly lower than expected
"MPQNFYKLPQM [Peptide A-2, Colostrinin peptide of unknown precursor]",6400,0,
"MQPPPLP [Peptide B-9, Colostrinin peptide (possibly) having β-casein homologue precursor]",3200,0,
SEEMP [Peptide B-3],25600,0,
SEQP [Peptide A-5],3200,0,
"VLEMKFPPPPQETVT [Peptide A-3, Colostrinin peptide of unknown precursor]",6400,0,
"VLPPNVG [Peptide B-1, Colostrinin peptide (possibly) having β-casein homologue precursor]",26500,0,
VVMEV [Peptide B-6],25600,0,
